Earlier results, collected in patent publication US20110029296A1, “Metabolic analysis apparatus and metabolic analysis method” (FUJITSU LIMITED, priority 2009, published 2011).

Molecular target: CYP2E1 (Homo sapiens, UniProt P05181)
Sequence (P05181 whole entry, species assumed): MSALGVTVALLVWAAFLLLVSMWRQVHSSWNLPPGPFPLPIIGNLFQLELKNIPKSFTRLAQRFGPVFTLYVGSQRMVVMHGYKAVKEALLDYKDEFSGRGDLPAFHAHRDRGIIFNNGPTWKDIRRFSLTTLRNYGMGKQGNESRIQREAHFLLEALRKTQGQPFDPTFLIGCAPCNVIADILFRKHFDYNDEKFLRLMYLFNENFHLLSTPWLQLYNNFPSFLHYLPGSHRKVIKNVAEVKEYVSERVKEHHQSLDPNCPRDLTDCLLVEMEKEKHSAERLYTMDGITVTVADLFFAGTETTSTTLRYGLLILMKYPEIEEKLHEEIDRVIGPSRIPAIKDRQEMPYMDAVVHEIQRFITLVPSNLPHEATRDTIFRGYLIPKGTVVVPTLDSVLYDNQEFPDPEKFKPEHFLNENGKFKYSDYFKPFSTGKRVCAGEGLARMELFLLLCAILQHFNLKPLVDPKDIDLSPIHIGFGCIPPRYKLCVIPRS

For `Nc1cc2c3ccccc3ccc2c2ccccc12` [6-aminochrysene], the “metabolism by CYP2E1” value (forms a complex with CYP2E1) is given as “not metabolized by CYP2E1” and the “effect on the metabolic reaction of CYP2E1” value (inhibition by the amino group) is given as “inhibitor which inhibits the metabolic reaction of CYP2E1”.
